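1) Cells in 96-well plates. 2) Compound, 48 h, 5 concentrations. 3) Linear interpolation between surrounding doses. 4) Unreached endpoint = highest concentration. GI50 = concentration required for 50% inhibition of growth.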 Calls of active or inactive are those of the source. No stated cut-off is given here; in the data, active = GI50 up to about 1.1 µM and inactive = higher.
Key:
Test in all cases: inhibition of tumour cell growth, NCI panel, 48 h
HOP-62 = system: HOP-62
PC-3 = system: PC-3
MCF7 = system: MCF7
HCC 2998 = system: HCC 2998
T47D = system: T47D
ACHN = system: ACHN
MDA-MB-435 = system: MDA-MB-435
NCI-H460 = system: NCI-H460
SNB-19 = system: SNB-19
SK-MEL-28 = system: SK-MEL-28
M14 = system: M14
SN12C = system: SN12C
LOX IMVI = system: LOX IMVI
IGROV-1 = system: IGROV-1
NCI-H226 = system: NCI-H226
U-251 = system: U-251
MDA-N = system: MDA-N
Malme-3M = system: Malme-3M
A498 = system: A498
SW-620 = system: SW-620

SMILES	GI50 (HOP-62)	GI50 (PC-3)	GI50 (MCF7)	GI50 (HCC 2998)	GI50 (T47D)	GI50 (ACHN)	GI50 (MDA-MB-435)	GI50 (NCI-H460)	GI50 (SNB-19)	GI50 (SK-MEL-28)	GI50 (M14)	GI50 (SN12C)	GI50 (LOX IMVI)	GI50 (IGROV-1)	GI50 (NCI-H226)	GI50 (U-251)	GI50 (MDA-N)	GI50 (Malme-3M)	GI50 (A498)	GI50 (SW-620)
O=C1OCC2=C1C(c1ccc3c(c1)OCO3)c1cc3c(cc1O2)OCO3 (configuration not stated)	0.851 µM (active)	0.59 µM (active)	0.341 µM (active)	4.42 µM (inactive)	0.7 µM (active)	3.27 µM (inactive)	0.0708 µM (active)	0.522 µM (active)	2.1 µM (inactive)	1.72 µM (inactive)	0.369 µM (active)	1.3 µM (inactive)	0.507 µM (active)	0.537 µM (active)	5.14 µM (inactive)	0.583 µM (active)	0.0782 µM (active)	3.1 µM (inactive)	1.98 µM (inactive)	0.406 µM (active)
CC1CC[C@@H](C(C)C)[C@H](Oc2nnc(C3OC(CO)C(O)C3O)o2)C1 (some centres not stated)	> 100 µM (inactive)	> 100 µM (inactive)	> 100 µM (inactive)	> 100 µM (inactive)	> 100 µM (inactive)	> 100 µM (inactive)	> 100 µM (inactive)	> 100 µM (inactive)	> 100 µM (inactive)	–	–	> 100 µM (inactive)	> 100 µM (inactive)	–	> 100 µM (inactive)	> 100 µM (inactive)	> 100 µM (inactive)	> 100 µM (inactive)	> 100 µM (inactive)	> 100 µM (inactive)
CCCCCCCCCCCOCCC1C(C(C)OCCN2CCCC2)OC2OC(C)(C)OC21 (configuration not stated)	1.91 µM (inactive)	1.97 µM (inactive)	2.65 µM (inactive)	1.69 µM (inactive)	2.24 µM (inactive)	4.63 µM (inactive)	1.89 µM (inactive)	2.07 µM (inactive)	5.56 µM (inactive)	1.64 µM (inactive)	0.869 µM (active)	2.53 µM (inactive)	1.46 µM (inactive)	2.42 µM (inactive)	8.79 µM (inactive)	2.24 µM (inactive)	1.95 µM (inactive)	1.6 µM (inactive)	13 µM (inactive)	1.78 µM (inactive)
C/C(=C/CNc1ncnc2c1ncn2CCC(=O)O)CO	> 100 µM (inactive)	> 100 µM (inactive)	> 100 µM (inactive)	> 100 µM (inactive)	> 100 µM (inactive)	> 100 µM (inactive)	> 100 µM (inactive)	> 100 µM (inactive)	> 100 µM (inactive)	> 100 µM (inactive)	> 100 µM (inactive)	> 100 µM (inactive)	> 100 µM (inactive)	> 100 µM (inactive)	> 100 µM (inactive)	–	> 100 µM (inactive)	> 100 µM (inactive)	> 100 µM (inactive)	> 100 µM (inactive)
CCOC(=O)CCc1c(C)nc2c(C)c3c([nH]c4ccc(Cl)cc43)c(C)c2c1O	12.3 µM (inactive)	4.19 µM (inactive)	7 µM (inactive)	14.1 µM (inactive)	14.8 µM (inactive)	12.1 µM (inactive)	9.18 µM (inactive)	2.15 µM (inactive)	9.59 µM (inactive)	14.1 µM (inactive)	4.94 µM (inactive)	–	10.9 µM (inactive)	10.2 µM (inactive)	17.1 µM (inactive)	11 µM (inactive)	10.7 µM (inactive)	11.3 µM (inactive)	1.8 µM (inactive)	22.4 µM (inactive)
COc1cc2[nH]c3c(c2cc1OC)CCN[C@@]31CC[C@@]2(CC3c4c(cc(OC)c(O)c42)CCN3C)C[C@@H]1OC (some centres not stated)	62.8 µM (inactive)	48.6 µM (inactive)	> 68.2 µM (inactive)	31.9 µM (inactive)	20.5 µM (inactive)	46 µM (inactive)	18.6 µM (inactive)	39.4 µM (inactive)	> 81.1 µM (inactive)	17.9 µM (inactive)	18 µM (inactive)	71.9 µM (inactive)	18.8 µM (inactive)	66.1 µM (inactive)	46.5 µM (inactive)	29.2 µM (inactive)	18.7 µM (inactive)	18.5 µM (inactive)	32 µM (inactive)	32.8 µM (inactive)
Cc1ccc2c(c1)Sc1ccc(/N=N/N(C)C)cc1N2C	> 100 µM (inactive)	71.1 µM (inactive)	87.9 µM (inactive)	> 100 µM (inactive)	31.7 µM (inactive)	> 100 µM (inactive)	> 100 µM (inactive)	54.7 µM (inactive)	> 100 µM (inactive)	> 100 µM (inactive)	> 100 µM (inactive)	> 100 µM (inactive)	35.8 µM (inactive)	> 100 µM (inactive)	> 100 µM (inactive)	> 100 µM (inactive)	> 100 µM (inactive)	> 100 µM (inactive)	> 100 µM (inactive)	> 100 µM (inactive)
CN(/N=C/c1ccc(C(=O)O)cc1)C1=NCCCCN1	> 100 µM (inactive)	> 100 µM (inactive)	> 100 µM (inactive)	> 100 µM (inactive)	> 100 µM (inactive)	> 100 µM (inactive)	> 100 µM (inactive)	> 100 µM (inactive)	> 100 µM (inactive)	> 100 µM (inactive)	> 100 µM (inactive)	> 100 µM (inactive)	> 100 µM (inactive)	> 100 µM (inactive)	> 100 µM (inactive)	> 100 µM (inactive)	> 100 µM (inactive)	> 100 µM (inactive)	> 100 µM (inactive)	–
O=P(c1ccccc1)(c1ccccc1)c1ccc2c(c1)OCCOCCOCCOCCO2	> 100 µM (inactive)	> 100 µM (inactive)	> 100 µM (inactive)	> 100 µM (inactive)	> 100 µM (inactive)	> 100 µM (inactive)	> 100 µM (inactive)	> 100 µM (inactive)	> 100 µM (inactive)	> 100 µM (inactive)	> 100 µM (inactive)	> 100 µM (inactive)	> 100 µM (inactive)	> 100 µM (inactive)	> 100 µM (inactive)	–	> 100 µM (inactive)	> 100 µM (inactive)	> 100 µM (inactive)	> 100 µM (inactive)
O=C1CSC(c2cccc(Oc3ccccc3)c2)N1c1cc(Cl)ccc1Cl (configuration not stated)	21.9 µM (inactive)	22.6 µM (inactive)	6.3 µM (inactive)	14 µM (inactive)	21.7 µM (inactive)	24 µM (inactive)	15.4 µM (inactive)	20.1 µM (inactive)	22.8 µM (inactive)	29.5 µM (inactive)	22.2 µM (inactive)	19.5 µM (inactive)	20 µM (inactive)	–	23.4 µM (inactive)	18.4 µM (inactive)	17.6 µM (inactive)	27.5 µM (inactive)	32.6 µM (inactive)	22.3 µM (inactive)
